Literature values, collected in US12400737B2, “Methods of classifying diffuse large B-cell lymphoma” (CELGENE CORPORATION, priority 2018, dated 2025).

How the values were obtained:
[1] = tested on: diffuse large B-cell lymphoma (DLBCL); settings: background statement
[2] = tested on: acute myeloid leukemia (AML); settings: administered alone

Row | Compound | single-agent activity in DLBCL [1] | response in treating AML at relapse [2]
1 | Nc1cccc2c1CN(C1CCC(=O)NC1=O)C2=O (centres unmarked) [lenalidomide, 3-(4-amino-1-oxo-1,3-dihydro-isoindol-2-yl)-piperidine-2,6-dione] | significant single-agent activity | –
2 | CT-011: anti-PD-1 antibody, a humanized antibody | – | failed to show response
